Laboratory results taken from patent US10646488B2 (Araxes Pharma LLC, priority 2016, dated 2020).

Molecular target: T1, KRAS G12C 1-169, his-tagged protein, GDP-loaded (Homo sapiens, UniProt P01116, G12C)
T1 construct: KRAS G12C 1-169, his-tagged protein, GDP-loaded
Assay: Covalent binding (% modification) to KRAS G12C by mass spectrometry; further: test concentration or dose not given here

[1] = covalent binding to KRAS G12C after a three minute incubation period
[2] = covalent binding to KRAS G12C after a ten minute incubation period

| Structure (SMILES) | Binding % [1] | Binding % [2] |
| --- | --- | --- |
| C=CC(=O)N1CCN(c2nc(N3CC(C)(N(C)C)C3)nc3c(F)c(-c4c(C)ccc5[nH]ncc45)c(Cl)cc23)[C@@H](C)C1 [Compound 150, 1-((3S)-4-(6-chloro-2-(3-(dimethylamino)-3-methylazetidin-1-yl)-8-fluoro-7-(5-methyl-1H-indazol-4-yl)quinazolin-4-yl)-3-methyl-piperazin-1-yl) prop-2-en-1-one] | +++ (+++ indicates binding activity greater than 90%) | – |
| C=CC(=O)N1C[C@H](C)N(c2nc(OCCN(CC)CC)nc3c(F)c(-c4c(O)cccc4F)c(Cl)cc23)C[C@H]1C [Compound 48, 1-((2R,5S)-4-(6-chloro-2-(2-(diethylamino)ethoxy)-8-fluoro-7-(2-fluoro-6-hydroxyphenyl)quinazolin-4-yl)-2,5-dimethyl-piperazin-1-yl) prop-2-en-1-one] | – | ++ (++ indicates binding activity from 50 to 90%) |
| C=CC(=O)N1CCN(c2nc(OCCN3CC(F)(F)C3)nc3c(F)c(-c4c(O)cccc4F)c(Cl)cc23)C[C@H]1C [Compound 57, 1-((2R)-4-(6-chloro-2-(2-(3,3-difluoroazetidin-1-yl)ethoxy)-8-fluoro-7-(2-fluoro-6-hydroxyphenyl)quinazolin-4-yl)-2-methyl-piperazin-1-yl) prop-2-en-1-one] | – | +++ (+++ indicates binding activity greater than 90%) |
| C=CC(=O)N1C[C@H](C)N(c2nc(N3CC4(CCCN4C)C3)nc3c(F)c(-c4c(O)cccc4F)c(Cl)cc23)C[C@H]1C [Compound 177, 1-((2R,5S)-4-(6-chloro-8-fluoro-7-(2-fluoro-6-hydroxyphenyl)-2-(5-methyl-2,5-diazaspiro[3.4]octan-2-yl)quinazolin-4-yl)-2,5-dimethyl-piperazin-1-yl) prop-2-en-1-one] | ++ (++ indicates binding activity from 50 to 90%) | – |
| C#CCN(C)C1CN(c2nc(N3C[C@@H](C)N(C(=O)C=C)C[C@@H]3C)c3cc(Cl)c(-c4c(O)cccc4F)c(F)c3n2)C1 [Compound 93, 1-((2R,5S)-4-(6-chloro-8-fluoro-7-(2-fluoro-6-hydroxyphenyl)-2-(3-(methyl (prop-2-yn-1-yl)amino)azetidin-1-yl)quinazolin-4-yl)-2,5-dimethyl-piperazin-1-yl) prop-2-en-1-one] | ++ (++ indicates binding activity from 50 to 90%) | – |
| C=CC(=O)N1C[C@H](C)N(c2nc(OCCCN(C)C)nc3c(F)c(-c4c(C)ccc5[nH]ncc45)c(Cl)cc23)C[C@H]1C [Compound 199, 1-((2R,5S)-4-(6-chloro-2-(3-(dimethylamino)propoxy)-8-fluoro-7-(5-methyl-1H-indazol-4-yl)quinazolin-4-yl)-2,5-dimethyl-piperazin-1-yl) prop-2-en-1-one] | ++ (++ indicates binding activity from 50 to 90%) | – |
| C=CC(=O)N1C[C@H](C)N(c2nc(N3CC(N(C)C)C3)nc3c(F)c(-c4c(C)ccc5[nH]ncc45)c(Cl)cc23)C[C@H]1C (atropisomer, axis not shown) [Compound 131, 1-((2R,5S)-4-(6-chloro-2-(3-(dimethylamino)azetidin-1-yl)-8-fluoro-7-((S)-5-methyl-1H-indazol-4-yl)quinazolin-4-yl)-2,5-dimethyl-piperazin-1-yl) prop-2-en-1-one] | + (+ indicates binding activity greater than 0% and up to 50%) | – |
| C=CC(=O)N1[C@H](C)CN(c2nc(OCCN(CC)CC)nc3c(F)c(-c4c(O)cccc4F)c(Cl)cc23)C[C@@H]1C [Compound 29, 1-((2R,6S)-4-(6-chloro-2-(2-(diethylamino)ethoxy)-8-fluoro-7-(2-fluoro-6-hydroxyphenyl)quinazolin-4-yl)-2,6-dimethyl-piperazin-1-yl) prop-2-en-1-one] | – | ++ (++ indicates binding activity from 50 to 90%) |
| C=CC(=O)N1CCN(c2nc(N)nc3c(F)c(-c4c(O)cccc4F)c(Cl)cc23)C[C@H]1C [Compound 1, 1-((2R)-4-(2-amino-6-chloro-8-fluoro-7-(2-fluoro-6-hydroxyphenyl)quinazolin-4-yl)-2-methylpiperazin-1-yl)prop-2-en-1-one] | – | ++ (++ indicates binding activity from 50 to 90%) |
| C=CC(=O)N1C[C@H](C)N(c2nc(Oc3cn[nH]c3)nc3c(F)c(-c4c(C)ccc5[nH]ncc45)c(Cl)cc23)C[C@H]1C [Compound 223, 1-((2R,5S)-4-(2-(1H-pyrazol-4-yloxy)-6-chloro-8-fluoro-7-(5-methyl-1H-indazol-4-yl)quinazolin-4-yl)-2,5-dimethyl-piperazin-1-yl) prop-2-en-1-one] | ++ (++ indicates binding activity from 50 to 90%) | – |
| C=CC(=O)N1[C@H](C)CN(c2nc(N)nc3c(F)c(-c4c(C)ccc5cn[nH]c45)c(Cl)cc23)C[C@@H]1C [Compound 15, 1-((2S,6R)-4-(2-amino-6-chloro-8-fluoro-7-(6-methyl-1H-indazol-7-yl)quinazolin-4-yl)-2,6-dimethyl-piperazin-1-yl) prop-2-en-1-one] | – | ++ (++ indicates binding activity from 50 to 90%) |
| C=CC(=O)N1C[C@H](C)N(c2nc(OCCCN(CC)CC)nc3c(F)c(-c4c(O)cccc4F)c(Cl)cc23)C[C@H]1C [Compound 158, 1-((2R,5S)-4-(6-chloro-2-(3-(diethylamino)propoxy)-8-fluoro-7-(2-fluoro-6-hydroxyphenyl)quinazolin-4-yl)-2,5-dimethyl-piperazin-1-yl) prop-2-en-1-one] | +++ (+++ indicates binding activity greater than 90%) | – |
| C=CC(=O)N1C[C@H](C)N(c2nc(N3CC(N(C)C)C3)nc3c(F)c(-c4cc(B5OC(C)(C)C(C)(C)O5)cc5ccccc45)c(Cl)cc23)C[C@H]1C [Compound 179, 1-((2R,5S)-4-(6-chloro-2-(3-(dimethylamino)azetidin-1-yl)-8-fluoro-7-(3-(4,4,5,5-tetramethyl-1,3,2-dioxaborolan-2-yl)naphthalen-1-yl)quinazolin-4-yl)-2,5-dimethyl-piperazin-1-yl) prop-2-en-1-one] | + (+ indicates binding activity greater than 0% and up to 50%) | – |
| C=CC(=O)N1C[C@H](C)N(c2nc(OCCN3CC(F)(F)C3)nc3c(F)c(-c4c(O)cccc4F)c(Cl)cc23)C[C@H]1C (atropisomer, axis not shown) [Compound 89, 1-((2R,5S)-4-(6-chloro-2-(2-(3,3-difluoroazetidin-1-yl)ethoxy)-8-fluoro-7-((R)-2-fluoro-6-hydroxyphenyl)quinazolin-4-yl)-2,5-dimethyl-piperazin-1-yl) prop-2-en-1-one] | + (+ indicates binding activity greater than 0% and up to 50%) | – |
| C=CC(=O)N1C[C@@H](C)N(c2nc(NC3CCN(C4CC4)CC3)nc3c(F)c(-c4c(C)ccc5cn[nH]c45)c(Cl)cc23)[C@@H](C)C1 [Compound 43, 1-((3S,5R)-4-(6-chloro-2-((1-cyclopropyl-piperidin-4-yl)amino)-8-fluoro-7-(6-methyl-1H-indazol-7-yl)quinazolin-4-yl)-3,5-dimethyl-piperazin-1-yl) prop-2-en-1-one] | – | ++ (++ indicates binding activity from 50 to 90%) |
| C=CC(=O)N1C[C@H](C)N(c2nc(Oc3cnn(C)c3)nc3c(F)c(-c4c(C)ccc5[nH]ncc45)c(Cl)cc23)C[C@H]1C [Compound 217, 1-((2R,5S)-4-(6-chloro-8-fluoro-7-(5-methyl-1H-indazol-4-yl)-2-(1-methyl-1H-pyrazol-4-yloxy)quinazolin-4-yl)-2,5-dimethyl-piperazin-1-yl) prop-2-en-1-one] | ++ (++ indicates binding activity from 50 to 90%) | – |
| C=CC(=O)N1C[C@H](C)N(c2nc(N3CC(N(C)CC)C3)nc3c(F)c(-c4c(C)ccc5cn[nH]c45)c(Cl)cc23)C[C@H]1C [Compound 118, 1-((2R,5S)-4-(6-chloro-2-(3-(ethyl(methyl)amino)azetidin-1-yl)-8-fluoro-7-(6-methyl-1H-indazol-7-yl)quinazolin-4-yl)-2,5-dimethyl-piperazin-1-yl) prop-2-en-1-one] | + (+ indicates binding activity greater than 0% and up to 50%) | – |
| C=CC(=O)N1C[C@@H](C)N(c2nc(N3CC(N(C)C)C3)nc3c(F)c(-c4c(C)ccc5cn[nH]c45)c(Cl)cc23)[C@@H](C)C1 [Compound 44, 1-((3S,5R)-4-(6-chloro-2-(3-(dimethylamino)azetidin-1-yl)-8-fluoro-7-(6-methyl-1H-indazol-7-yl)quinazolin-4-yl)-3,5-dimethyl-piperazin-1-yl) prop-2-en-1-one] | – | ++ (++ indicates binding activity from 50 to 90%) |
| C=CC(=O)N1CCN(c2nc(OCCN(CC)CC)nc3c(F)c(-c4c(O)cccc4F)c(Cl)cc23)C[C@H]1C [Compound 85, 1-((2R)-4-(6-chloro-2-(2-(diethylamino)ethoxy)-8-fluoro-7-(2-fluoro-6-hydroxyphenyl)quinazolin-4-yl)-2-methyl-piperazin-1-yl) prop-2-en-1-one] | ++ (++ indicates binding activity from 50 to 90%) | – |
| C=CC(=O)N1CCN(c2nc(OCCN3CC(F)(F)C3)nc3c(F)c(-c4c(O)cccc4F)c(Cl)cc23)C[C@H]1C (atropisomer, axis not shown) [Compound 62, 1-((R)-4-((R)-6-chloro-2-(2-(3,3-difluoroazetidin-1-yl)ethoxy)-8-fluoro-7-(2-fluoro-6-hydroxyphenyl)quinazolin-4-yl)-2-methyl-piperazin-1-yl) prop-2-en-1-one] | – | + (+ indicates binding activity up to 50%) |
| C#CCN(C)C1CN(c2nc(N3C[C@@H](C)N(C(=O)C=C)C[C@@H]3C)c3cc(Cl)c(-c4c(C)ccc5cn[nH]c45)c(F)c3n2)C1 [Compound 148, 1-((2R,5S)-4-(6-chloro-8-fluoro-2-(3-(methyl (prop-2-yn-1-yl)amino)azetidin-1-yl)-7-(6-methyl-1H-indazol-7-yl)quinazolin-4-yl)-2,5-dimethyl-piperazin-1-yl) prop-2-en-1-one] | ++ (++ indicates binding activity from 50 to 90%) | – |
| C=CC(=O)N1C[C@H](C)N(c2nc(N3CC(N(C)C)C3)nc3c(F)c(-c4ccccc4O)c(Cl)cc23)C[C@H]1C [Compound 135, 1-((2R,5S)-4-(6-chloro-2-(3-(dimethylamino)azetidin-1-yl)-8-fluoro-7-(2-hydroxyphenyl)quinazolin-4-yl)-2,5-dimethyl-piperazin-1-yl) prop-2-en-1-one] | ++ (++ indicates binding activity from 50 to 90%) | – |
